This note sets out measurements from patent US20180146698A1, “FORMULA FEED FOR POULTRY” (JXTG Nippon Oil & Energy Corporation, priority 2015, published 2018).

In assay [1] the test system is chickens. Put plainly: Yolk color measurement using colorimeter 2 (eggs of Example 8). It is filed as in vivo. As to conditions: 2 ppm or 4 ppm; corn contents of 0% to 30%. The procedure: The yolk color of eggs obtained in Example 8 was measured using a colorimeter (CM-700d, Konica Minolta Inc.). FIGS. 14a to 14c show the measurement results of the L*, a*, and b* values, respectively.

The test system of assay [2] is chickens. Briefly: Chicken egg color enhancement test 2: yolk color fan value, feeds with corn contents of 30% to 50%. It is filed as in vivo. The procedure:
The effects of the present invention were confirmed using feeds with corn contents of 30% to 50% in the same manner as in Example 1. Formula feeds were prepared by adding astaxanthin or t-capsanthin to feeds with the compositions listed in Table 5 so as to result in a final concentration of 1 to 16 ppm. In this Example, the feeds were the same except the corn content and the content of brown rice, which is added depending on a decrease in the corn content, and corn-derived corn gluten meal was not mixed therein. FIGS. 8a and 8b show the relationship between the astaxanthin and t-capsanthin concentrations in the feeds with corn contents of 30% and 50% and the yolk color fan values for the obtained eggs. Based on the results of FIGS. 8a and 8b, the concentrations of astaxanthin and t-capsanthin to be added to a feed in order to achieve a desired color fan value of 10 to 15 were calculated for feeds with corn contents of 30% and 50% (Table 6).

For assay [3], the system named is Julia Light hens. Briefly: Chicken egg color enhancement test 1: yolk color fan value, low- and standard-corn-content feed. It is filed as in vivo, chickens. The procedure:
A preparation of dry cells of a Paracoccus bacterium (with an astaxanthin content of 2%) and a paprika colorant preparation (with a t-capsanthin content of 0.25%) were used as coloring agents for evaluation. Cells of a nitrosoguanidine mutant strain obtained from the Paracoccus carotinifaciens E-396 strain (FERM BP-4283) were used as carotenoid-producing Paracoccus bacterial cells for a preparation of dry cells of a Paracoccus bacterium. The preparation was cultured in a seed flask medium and then cultured in a main culture medium at 28° C. under aerobic conditions until the bacterial cell concentration reached the maximum level. Next, the cultured cells were collected and recovered using a centrifuge. The recovered Paracoccus bacterial cells were dried using a double drum dryer at a drum rotation speed of 3.5 rpm and a drum temperature of 140° C. The average particle size (volume particle size D50) of the obtained power was approximately […]. The powder was further finely powderized (pulverized) using a jet mill (Seishin Enterprise Co., Ltd.) so that the average particle size (D50) became 9 μm. The obtained product was used as a preparation of dry cells of a Paracoccus bacterium. As a paprika colorant preparation, Color Up (a product with a total xanthophyll concentration of 5 g/kg, Kohkin Chemical Co., Ltd.) was used. The above preparations were added to a low-corn-content feed and a standard-corn-content feed listed in Table 1, thereby preparing formula feeds each containing astaxanthin or t-capsanthin at a final concentration of 1, 2, 4, or 8 ppm. Table 2 lists measured concentrations of astaxanthin and t-capsanthin contained in the actually produced formula feeds. Julia Light hens were used for tests. Ten chickens were provided for each test plot. The acclimatization period was set to 2 weeks. Eggs collected in Week 2, during which the color fan value became stabilized, or later, were evaluated. Eggs were collected from each test plot. The color fan values of 10 chicken eggs were measured using Egg Multitester EMT-7300 (JA Z-Tamago Co., Ltd.) for each test plot. The yolk carotenoid concentration was determined for 3 eggs for each test plot. FIGS. 1 and 2 show the relationship between the concentrations of astaxanthin and t-capsanthin in both feeds and the yolk color fan values of the obtained eggs. Based on the results of FIGS. 1 and 2, the concentrations of astaxanthin and t-capsanthin to be added to the low-corn-content feed in order to achieve a desired color fan value of 10 to 15 were calculated (Table 3). For example, in order to achieve a color fan value of 13, astaxanthin may be added to the low-corn-content feed so as to result in a final concentration of 2.2 ppm. Meanwhile, t-capsanthin needs to be added so as to result in a final concentration of 4.3 ppm.

SMILES strings stand for the structures.

With `CC1=C(/C=C/C(C)=C/C=C/C(C)=C/C=C/C=C(C)/C=C/C=C(C)/C=C/C(=O)[C@]2(C)C[C@@H](O)CC2(C)C)C(C)(C)C[C@H](O)C1` (relative stereo) [t-Capsanthin, trans-capsanthin, reference compound], the “a* value (red color) of yolk in relation to corn content” value in assay [1] is on record as “increased in proportional to the corn content”. Also, the “Colorant concentration in feed to achieve desired CF value” in assay [2] (desired CF value 10, 30% Corn feed) is recorded as 2.1 ppm; in assay [2] (desired CF value 10, 50% Corn feed) it was 2.4 ppm; in assay [2] (desired CF value 11, 30% Corn feed), 2.8 ppm; in assay [2] (desired CF value 11, 50% Corn feed), 3.1 ppm; in assay [2] (desired CF value 12, 30% Corn feed) it was 3.6 ppm; in assay [2] (desired CF value 12, 50% Corn feed), 4.0 ppm. Further, the “Colorant concentration in feed to achieve desired CF value” in assay [2] (desired CF value 13, 30% Corn feed) turned out to be 4.7 ppm; in assay [2] (desired CF value 13, 50% Corn feed) it was 5.2 ppm; in assay [2] (desired CF value 14, 30% Corn feed), 6.4 ppm; in assay [2] (desired CF value 14, 50% Corn feed) it was 6.8 ppm; in assay [2] (desired CF value 15, 30% Corn feed) it was 9.8 ppm; in assay [2] (desired CF value 15, 50% Corn feed), 9.7 ppm. For the same compound, the “change of color fan value, low-corn-content vs standard-corn-content feed” value in assay [3] (colorant added at 4 ppm) is “did not increase”. Further, the CF value in assay [3] (colorant added at 4 ppm, low-corn-content feed) was 12.2; in assay [3] (colorant added at 4 ppm, standard-corn-content feed), 12.7. The “Colorant concentration in feed necessary for achieving the desired CF value” is given as 1.8 ppm in assay [3] (desired CF value 10, low-corn-content feed); 2.4 ppm in assay [3] (desired CF value 11, low-corn-content feed); 3.2 ppm in assay [3] (desired CF value 12, low-corn-content feed); 4.3 ppm in assay [3] (desired CF value 13, low-corn-content feed); 6.0 ppm in assay [3] (desired CF value 14, low-corn-content feed).
